Measured values from US9567342B2, “Certain protein kinase inhibitors” (SHANGHAI FOCHON PHARMACEUTICAL CO., LTD., priority 2012, dated 2017).

system: SU-DHL-1 cells; experiment: Inhibition activity of cell proliferation (CCK-8 assay); type: cell-based; settings: Homo sapiens, 72 h exposure
Procedure: SU-DHL-1 cells were seeded in 96-well tissue culture plates. On the next day, cells were exposed to various concentrations of compounds and further cultured for 72 h. Cell proliferation was then determined using Cell Counting Kit-8 [(CCK-8), Dojindo]assay. Briefly, add 10 μL of the CCK-8 solution to each well of the plate. Incubate the plate for 1-4 hours in the incubator. Measure the absorbance at 450 nm using a multi-well spectrophotometer (SpectraMAX 190, Molecular Devices). The inhibition rate (%) was calculated using the following equation: [1−(A450 Compound/A450 Control)]×100%. IC50 values were calculated according to inhibition curve by four-parameter fit.

Going from `COCCN1CCC(c2c(C)cc(Nc3ncc(Cl)c(Nc4ccccc4S(=O)(=O)C(C)C)n3)c3c2C[C@@H](C)O3)CC1` [Example 32, (R)-5-chloro-N-4-(2-(isopropylsulfonyl)phenyl)-N-2-(4-(1-(2-methoxyethyl)piperidin-4-yl)-2,5-dimethyl-2,3-dihydrobenzofuran-7-yl)pyrimidine-2,4-diamine] to `Cc1cc(Nc2ncc(Cl)c(Nc3ccccc3S(=O)(=O)C(C)C)n2)c2c(c1C1CCN(CCO)CC1)C[C@@H](C)O2` [Example 33, (R)-2-(4-(7-((5-chloro-4-((2-(isopropylsulfonyl)phenyl)amino)pyrimidin-2-yl)amino)-2,5-dimethyl-2,3-dihydrobenzofuran-4-yl)piperidin-1-yl)ethanol], the IC50 falls from 19.3 nM to 11.8 nM (1.6-fold).

Compared with `Cc1cc(Nc2ncc(Cl)c(Nc3ccccc3S(=O)(=O)C(C)C)n2)c2c(c1C1CCN(CCO)CC1)C[C@H](C)O2` [Example 34, (S)-2-(4-(7-((5-chloro-4-((2-(isopropylsulfonyl)phenyl)amino)pyrimidin-2-yl)amino)-2,5-dimethyl-2,3-dihydrobenzofuran-4-yl)piperidin-1-yl)ethanol], `Cc1cc(Nc2ncc(Cl)c(Nc3ccccc3S(=O)(=O)C(C)C)n2)c2c(c1C1CCN(C[C@@H](C)O)CC1)C[C@H](C)O2` [Example 35, (R)-1-(4-((S)-7-((5-chloro-4-((2-(isopropylsulfonyl)phenyl)amino)pyrimidin-2-yl)amino)-2,5-dimethyl-2,3-dihydrobenzofuran-4-yl)piperidin-1-yl)propan-2-ol] is 3-fold higher in IC50: 12.3 nM for the first, 36.9 nM for the second. The first is the more potent here.

First: Cc1cc(Nc2ncc(Cl)c(Nc3ccccc3S(=O)(=O)C(C)C)n2)c2c(c1C1CCN(C[C@H](C)O)CC1)C[C@H](C)O2 [Example 36, (S)-1-(4-((S)-7-((5-chloro-4-((2-(isopropylsulfonyl)phenyl)amino)pyrimidin-2-yl)amino)-2,5-dimethyl-2,3-dihydrobenzofuran-4-yl)piperidin-1-yl)propan-2-ol]
Second: Cc1cc(Nc2ncc(Cl)c(Nc3ccccc3S(=O)(=O)C(C)C)n2)c2c(c1C1CCN(C(=O)[C@H](C)O)CC1)C[C@@H](C)O2 [Example 38, (S)-1-(4-((R)-7-((5-chloro-4-((2-(isopropylsulfonyl)phenyl)amino)pyrimidin-2-yl)amino)-2,5-dimethyl-2,3-dihydrobenzofuran-4-yl)piperidin-1-yl)-2-hydroxypropan-1-one]
The IC50 of the first is 1.9-fold higher: 26.2 nM for the first, 13.6 nM for the second. The second is the more potent here.

First: Cc1cc(Nc2ncc(Cl)c(Nc3ccccc3S(=O)(=O)C(C)C)n2)c2c(c1C1CCN(C(=O)CO)CC1)C[C@@H](C)O2 [Example 37, (R)-1-(4-(7-((5-chloro-4-((2-(isopropylsulfonyl)phenyl)amino)pyrimidin-2-yl)amino)-2,5-dimethyl-2,3-dihydrobenzofuran-4-yl)piperidin-1-yl)-2-hydroxyethanone]
Second: Cc1cc(Nc2ncc(Cl)c(Nc3ccccc3S(=O)(=O)C(C)C)n2)c2c(c1C1CCN(C(=O)CN)CC1)C[C@H](C)O2 [Example 42, (S)-2-amino-1-(4-(7-((5-chloro-4-((2-(isopropylsulfonyl)phenyl)amino)pyrimidin-2-yl)amino)-2,5-dimethyl-2,3-dihydrobenzofuran-4-yl)piperidin-1-yl)ethanone]
The IC50 of the first is 4.4-fold lower: 12.5 nM for the first, 54.6 nM for the second. The first is the more potent here.

Compared with `Cc1cc(Nc2ncc(Cl)c(Nc3ccccc3S(=O)(=O)C(C)C)n2)c2c(c1C1CCN(C(=O)[C@@H](C)O)CC1)C[C@@H](C)O2` [Example 39, (R)-1-(4-((R)-7-((5-chloro-4-((2-(isopropylsulfonyl)phenyl)amino)pyrimidin-2-yl)amino)-2,5-dimethyl-2,3-dihydrobenzofuran-4-yl)piperidin-1-yl)-2-hydroxypropan-1-one], `Cc1cc(Nc2ncc(Cl)c(Nc3ccccc3S(=O)(=O)C(C)C)n2)c2c(c1C1CCN(C(=O)C(C)C)CC1)C[C@@H](C)O2` [Example 50, (R)-1-(4-(7-((5-chloro-4-((2-(isopropylsulfonyl)phenyl)amino)pyrimidin-2-yl)amino)-2,5-dimethyl-2,3-dihydrobenzofuran-4-yl)piperidin-1-yl)-2-methylpropan-1-one] is 7.9-fold higher in IC50: 10.3 nM for the first, 81.2 nM for the second. The first is the more potent here.

Going from `COC(=O)N1CCC(c2c(C)cc(Nc3ncc(Cl)c(Nc4ccccc4S(=O)(=O)C(C)C)n3)c3c2C[C@H](C)O3)CC1` [Example 40, (S)-methyl 4-(7-((5-chloro-4-((2-(isopropylsulfonyl)phenyl)amino)pyrimidin-2-yl)amino)-2,5-dimethyl-2,3-dihydrobenzofuran-4-yl)piperidine-1-carboxylate] to `CO[C@H](C)C(=O)N1CCC(c2c(C)cc(Nc3ncc(Cl)c(Nc4ccccc4S(=O)(=O)C(C)C)n3)c3c2C[C@H](C)O3)CC1` [Example 55, (R)-1-(4-((S)-7-((5-chloro-4-((2-(isopropylsulfonyl)phenyl)amino)pyrimidin-2-yl)amino)-2,5-dimethyl-2,3-dihydrobenzofuran-4-yl)piperidin-1-yl)-2-methoxypropan-1-one], the IC50 falls from 120 nM to 35.7 nM (3.4-fold).

Going from `CCOC(=O)CN1CCC(c2c(C)cc(Nc3ncc(Cl)c(Nc4ccccc4S(=O)(=O)C(C)C)n3)c3c2C[C@H](C)O3)CC1` [Example 41, (S)-ethyl 2-(4-(7-((5-chloro-4-((2-(isopropylsulfonyl)phenyl)amino)pyrimidin-2-yl)amino)-2,5-dimethyl-2,3-dihydrobenzofuran-4-yl)piperidin-1-yl)acetate] to `CCC(=O)N1CCC(c2c(C)cc(Nc3ncc(Cl)c(Nc4ccccc4S(=O)(=O)C(C)C)n3)c3c2C[C@@H](C)O3)CC1` [Example 49, (R)-1-(4-(7-((5-chloro-4-((2-(isopropylsulfonyl)phenyl)amino)pyrimidin-2-yl)amino)-2,5-dimethyl-2,3-dihydrobenzofuran-4-yl)piperidin-1-yl)propan-1-one], the IC50 rises from 43.2 nM to 97.8 nM (2.3-fold).

Compared with `Cc1cc(Nc2ncc(Cl)c(Nc3ccccc3S(=O)(=O)C(C)C)n2)c2c(c1C1CCN(C(N)=O)CC1)C[C@H](C)O2` [Example 43, (S)-4-(7-((5-chloro-4-((2-(isopropylsulfonyl)phenyl)amino)pyrimidin-2-yl)amino)-2,5-dimethyl-2,3-dihydrobenzofuran-4-yl)piperidine-1-carboxamide], `CNCC(=O)N1CCC(c2c(C)cc(Nc3ncc(Cl)c(Nc4ccccc4S(=O)(=O)C(C)C)n3)c3c2C[C@H](C)O3)CC1` [Example 44, (S)-1-(4-(7-((5-chloro-4-((2-(isopropylsulfonyl)phenyl)amino)pyrimidin-2-yl)amino)-2,5-dimethyl-2,3-dihydrobenzofuran-4-yl)piperidin-1-yl)-2-(methylamino)ethanone] is 2.5-fold higher in IC50: 107 nM for the first, 264 nM for the second. The first is the more potent here.

Going from `Cc1cc(Nc2ncc(Cl)c(Nc3ccccc3S(=O)(=O)C(C)C)n2)c2c(c1C1CCN(C(=O)CN(C)C)CC1)C[C@H](C)O2` [Example 45, (S)-1-(4-(7-((5-chloro-4-((2-(isopropylsulfonyl)phenyl)amino)pyrimidin-2-yl)amino)-2,5-dimethyl-2,3-dihydrobenzofuran-4-yl)piperidin-1-yl)-2-(dimethylamino)ethanone] to `CO[C@H](C)C(=O)N1CCC(c2c(C)cc(Nc3ncc(Cl)c(Nc4ccccc4S(=O)(=O)C(C)C)n3)c3c2C[C@@H](C)O3)CC1` [Example 56, (R)-1-(4-((R)-7-((5-chloro-4-((2-(isopropylsulfonyl)phenyl)amino)pyrimidin-2-yl)amino)-2,5-dimethyl-2,3-dihydrobenzofuran-4-yl)piperidin-1-yl)-2-methoxypropan-1-one], the IC50 falls from 39.5 nM to 26.3 nM (1.5-fold). The second is the more potent here.

First: Cc1cc(Nc2ncc(Cl)c(Nc3ccccc3S(=O)(=O)C(C)C)n2)c2c(c1C(=O)N1CCNCC1)C[C@H](C)O2 [Example 46, (S)-(7-((5-chloro-4-((2-(isopropylsulfonyl)phenyl)amino)pyrimidin-2-yl)amino)-2,5-dimethyl-2,3-dihydrobenzofuran-4-yl)(piperazin-1-yl)methanone]
Second: Cc1cc(Nc2ncc(Cl)c(Nc3ccccc3S(=O)(=O)C(C)C)n2)c2c(c1C(=O)N1CCOCC1)C[C@H](C)O2 [Example 48, (S)-(7-((5-chloro-4-((2-(isopropylsulfonyl)phenyl)amino)pyrimidin-2-yl)amino)-2,5-dimethyl-2,3-dihydrobenzofuran-4-yl)(morpholino)methanone]
The IC50 of the first is 1.9-fold lower: 114 nM for the first, 219 nM for the second. The first is the more potent here.

Compared with `Cc1cc(Nc2ncc(Cl)c(Nc3ccccc3S(=O)(=O)C(C)C)n2)c2c(c1C(=O)N1CCN(C)CC1)C[C@H](C)O2` [Example 47, (S)-(7-((5-chloro-4-((2-(isopropylsulfonyl)phenyl)amino)pyrimidin-2-yl)amino)-2,5-dimethyl-2,3-dihydrobenzofuran-4-yl)(4-methylpiperazin-1-yl)methanone], `Cc1cc(Nc2ncc(Cl)c(Nc3ccccc3S(=O)(=O)C(C)C)n2)c2c(c1C1CCN(C(=O)C3CC3)CC1)C[C@@H](C)O2` [Example 51, (R)-(4-(7-((5-chloro-4-((2-(isopropylsulfonyl)phenyl)amino)pyrimidin-2-yl)amino)-2,5-dimethyl-2,3-dihydrobenzofuran-4-yl)piperidin-1-yl)(cyclopropyl)methanone] is 2.2-fold lower in IC50: 117 nM for the first, 52.4 nM for the second.

Going from `CCS(=O)(=O)N1CCC(c2c(C)cc(Nc3ncc(Cl)c(Nc4ccccc4S(=O)(=O)C(C)C)n3)c3c2C[C@@H](C)O3)CC1` [Example 52, (R)-5-chloro-N-2-(4-(1-(ethylsulfonyl)piperidin-4-yl)-2,5-dimethyl-2,3-dihydrobenzofuran-7-yl)-N-4-(2-(isopropylsulfonyl)phenyl)pyrimidine-2,4-diamine] to `Cc1cc(Nc2ncc(Cl)c(Nc3ccccc3S(=O)(=O)C(C)C)n2)c2c(c1C1CCN(S(=O)(=O)C(C)C)CC1)C[C@@H](C)O2` [Example 53], the IC50 rises from 59 nM to 110 nM (1.9-fold).

With `Cc1cc(Nc2ncc(Cl)c(Nc3ccccc3S(=O)(=O)C(C)C)n2)c2c(c1C1CCN(S(=O)(=O)C3CC3)CC1)C[C@@H](C)O2` [Example 54, (R)-5-chloro-N-2-(4-(1-(cyclopropylsulfonyl)piperidin-4-yl)-2,5-dimethyl-2,3-dihdyrobenzofuran-7-yl)-N-4-(2-(isopropylsulfonyl)phenyl)pyrimidine-2,4-diamine] the IC50 was 333 nM.
